The target of one assay is T1, TLR7 (Homo sapiens, UniProt Q9NYK1).
T1 construct: expressed in transfected cells; host or cells: HEK/293 cells carrying TLR7 and an NF-kB luciferase reporter
T1 sequence (Q9NYK1 27-1049): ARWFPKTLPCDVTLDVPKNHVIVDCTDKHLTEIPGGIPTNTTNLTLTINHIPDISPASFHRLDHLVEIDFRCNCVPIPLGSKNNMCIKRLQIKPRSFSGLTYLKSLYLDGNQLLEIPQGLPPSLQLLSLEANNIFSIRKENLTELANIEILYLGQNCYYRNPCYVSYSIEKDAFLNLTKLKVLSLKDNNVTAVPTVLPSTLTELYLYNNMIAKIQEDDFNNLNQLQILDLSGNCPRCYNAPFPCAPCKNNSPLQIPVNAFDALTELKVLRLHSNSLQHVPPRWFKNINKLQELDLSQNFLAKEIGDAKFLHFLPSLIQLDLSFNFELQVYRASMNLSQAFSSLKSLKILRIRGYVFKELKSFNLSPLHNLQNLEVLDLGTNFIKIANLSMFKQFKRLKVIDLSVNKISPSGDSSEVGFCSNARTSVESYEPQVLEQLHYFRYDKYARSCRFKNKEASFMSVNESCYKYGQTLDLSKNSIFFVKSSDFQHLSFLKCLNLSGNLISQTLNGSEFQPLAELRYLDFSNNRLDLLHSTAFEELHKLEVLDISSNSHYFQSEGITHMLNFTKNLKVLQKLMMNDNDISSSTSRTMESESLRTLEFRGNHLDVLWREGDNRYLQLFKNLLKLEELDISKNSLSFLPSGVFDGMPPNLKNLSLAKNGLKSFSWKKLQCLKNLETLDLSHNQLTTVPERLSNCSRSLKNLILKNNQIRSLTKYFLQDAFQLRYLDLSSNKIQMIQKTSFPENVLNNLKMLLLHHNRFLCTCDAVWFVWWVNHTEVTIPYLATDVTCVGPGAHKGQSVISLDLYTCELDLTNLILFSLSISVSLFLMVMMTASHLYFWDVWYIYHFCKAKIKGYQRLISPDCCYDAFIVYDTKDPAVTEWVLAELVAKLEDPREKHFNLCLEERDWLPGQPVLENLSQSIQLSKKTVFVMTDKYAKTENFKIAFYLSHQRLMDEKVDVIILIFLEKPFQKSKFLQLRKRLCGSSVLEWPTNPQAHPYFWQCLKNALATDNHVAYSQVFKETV
The assay is described as follows: HEK/293 TLR7 Cell Assay. It is filed as cell-based. To be noted: TLR7/NFKb HEK cells, R848 agonist 10 uM final concentration, Steady-Glo readout; read-out: TLR7 potency. In short, it runs like this: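 TLR7/NF-κB reporter HEK293 cells, 5000/well, cultured 24 h, then preincubated 30 min with compound before R848 agonist (10 uM final). After 5 h stimulation, Steady-Glo luciferase luminescence read.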

A further assay addresses T2, TLR8 (Homo sapiens, UniProt Q9NR97).
T2 construct: expressed in transfected cells; host or cells: HEK/293 reporter cells (NF-kB luciferase)
T2 sequence (Q9NR97 27-1041): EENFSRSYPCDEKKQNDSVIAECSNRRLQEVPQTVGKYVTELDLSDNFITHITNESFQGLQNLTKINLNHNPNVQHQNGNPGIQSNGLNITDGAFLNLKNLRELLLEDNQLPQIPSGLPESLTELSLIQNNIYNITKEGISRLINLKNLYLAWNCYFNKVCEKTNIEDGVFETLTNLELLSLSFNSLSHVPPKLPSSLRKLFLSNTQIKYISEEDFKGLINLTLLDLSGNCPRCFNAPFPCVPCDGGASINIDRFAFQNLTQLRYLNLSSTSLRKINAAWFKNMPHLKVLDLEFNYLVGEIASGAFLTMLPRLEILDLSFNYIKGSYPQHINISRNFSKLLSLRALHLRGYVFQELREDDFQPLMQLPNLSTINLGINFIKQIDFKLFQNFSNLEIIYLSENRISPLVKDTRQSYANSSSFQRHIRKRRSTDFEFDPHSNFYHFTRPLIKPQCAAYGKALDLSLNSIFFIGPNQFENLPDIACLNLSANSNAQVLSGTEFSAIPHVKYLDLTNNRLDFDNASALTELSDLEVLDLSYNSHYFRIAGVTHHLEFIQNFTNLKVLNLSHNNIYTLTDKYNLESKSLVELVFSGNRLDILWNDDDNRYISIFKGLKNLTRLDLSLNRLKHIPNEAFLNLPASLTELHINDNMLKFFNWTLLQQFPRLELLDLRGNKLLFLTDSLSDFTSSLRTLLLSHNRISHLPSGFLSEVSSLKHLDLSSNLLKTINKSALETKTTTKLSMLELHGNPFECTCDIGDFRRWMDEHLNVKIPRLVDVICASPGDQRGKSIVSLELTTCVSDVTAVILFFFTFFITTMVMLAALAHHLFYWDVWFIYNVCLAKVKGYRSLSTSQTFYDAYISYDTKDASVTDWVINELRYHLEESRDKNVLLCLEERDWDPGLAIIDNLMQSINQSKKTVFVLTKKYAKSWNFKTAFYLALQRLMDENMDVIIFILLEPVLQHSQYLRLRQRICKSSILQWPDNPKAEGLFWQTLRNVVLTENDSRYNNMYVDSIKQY
The assay is described as follows: HEK/293 TLR8 Cell Assay. The class given is cell-based. To be noted: HEK cells, R848 agonist 30 uM final concentration, Steady-Glo readout; read-out: TLR8 potency.

A value given as a limit tells only on which side of the number the result lay.

On to `CN(C)CCNC(=O)N[C@@H]1C[C@H](C(F)(F)F)CN(c2ccc(C(F)(F)F)c3ncccc23)C1` [Example 144, 3-[2-(dimethylamino)ethyl]-1-[(3R,5S)-5-(trifluoromethyl)-1-[8-(trifluoromethyl)quinolin-5-yl]piperidin-3-yl]urea], for which the figures for the IC50 at TLR7 and on TLR8 were 0.075 to 0.15 µM and below 0.075 µM, respectively.

Take `N#Cc1ncc(N2C[C@H](N)C[C@H](C(F)(F)F)C2)c2cccnc12` [Example 9, 5-((3R,5S)-3-Amino-5-trifluoromethyl-piperidin-1-yl)-[1,7]naphthyridine-8-carbonitrile]: the IC50 was below 0.075 µM on TLR7 and 0.075 to 0.15 µM at TLR8.

As for `CC(C(=O)N[C@@H]1C[C@H](C)CN(c2ccc(C#N)c3nccnc23)C1)N1CCC(O)CC1` (single isomer, unassigned) [Example 102], the IC50 on TLR7 and on TLR8 was below 0.075 µM in each case.

As to `C[C@@H]1C[C@H](NC(=O)C[C@@H]2[C@@H]3C[C@H]2CN(C)C3)CN(c2ccc(C(F)(F)F)c3ncccc23)C1` [Example 107, N-((3S,5R)-5-methyl-1-(8-(trifluoromethyl)quinolin-5-yl)piperidin-3-yl)-2-((1R,5S,6r)-3-methyl-3-azabicyclo[3.1.1]heptan-6-yl)acetamide], the IC50 on TLR7 and at TLR8 was below 0.075 µM in each case.

For `CCN(CC)C1CCN(C[C@H]2CN(c3ccc(C#N)c4nccnc34)C[C@@H](C)O2)CC1` [Example 217, 8-[(2S,6R)-2-(4-Diethylamino-piperidin-1-ylmethyl)-6-methyl-morpholin-4-yl]-quinoxaline-5-carbonitrile], the IC50 on TLR7 and on TLR8 was below 0.075 µM each time.

For `C[C@H]1C[C@@H](NC(=O)CCC2CCN(C)CC2)CN(c2cnc(C#N)c3nccnc23)C1` [Example 189, N-[(3R,5S)-1-(5-Cyano-pyrido[3,4-b]pyrazin-8-yl)-5-methyl-piperidin-3-yl]-3-(1-methyl-piperidin-4-yl)-propionamide], the IC50 at TLR7 was 0.075 to 0.15 µM; on TLR8, below 0.075 µM.

For `C[C@H]1C[C@@H](NCC2CCS(=O)(=O)C2)CN(c2ccc(C#N)c3nccnc23)C1` (stereo partly drawn) [Example 42, 8-{(3R,5S)-3-[(1,1-Dioxo-tetrahydro-1lambda6-thiophen-3-ylmethyl)-amino]-5-methyl-piperidin-1-yl}-quinoxaline-5-carbonitrile], the IC50 on TLR7 and at TLR8 was 0.075 to 0.15 µM each time.

For the molecule `C[C@H]1C[C@@H](NC(=O)[C@H]2CCCN2)CN(c2ccc(C(F)(F)F)c3ncccc23)C1` [Example 177, (R)-Pyrrolidine-2-carboxylic acid [(3R,5S)-5-methyl-1-(8-trifluoromethyl-quinolin-5-yl)-piperidin-3-yl]-amide], the IC50 at TLR7 was 0.075 to 0.15 µM; at TLR8, below 0.075 µM.

Take `C[C@@H]1CN(c2ccc(C#N)c3nccnc23)C[C@H](c2nc(C3CC3)no2)O1` (racemic) [Example 214, 8-[(2R,6R)-2-(3-Cyclopropyl-[1,2,4]oxadiazol-5-yl)-6-methyl-morpholin-4-yl]-quinoxaline-5-carbonitrile]: the IC50 at TLR7 was 0.075 to 0.15 µM; at TLR8, below 0.075 µM.

For `C[C@@H]1CN(c2ccc(C#N)c3nccnc23)C[C@H](C(=O)NCC2CCCN2C)O1` (stereo partly drawn) [Example 245, (2R,6R)-4-(8-Cyano-quinoxalin-5-yl)-6-methyl-morpholine-2-carboxylic acid (1-methyl-pyrrolidin-2-ylmethyl)-amide], the IC50 on TLR7 and on TLR8 was below 0.075 µM each time.

As to `C[C@@H]1CN(c2cnc(C#N)c3ncccc23)C[C@H](C(=O)NC[C@H]2CCCN2C)O1` [Example 276, (2R,6R)-4-(8-Cyano-[1,7]naphthyridin-5-yl)-6-methyl-morpholine-2-carboxylic acid ((R)-1-methyl-pyrrolidin-2-ylmethyl)-amide], the IC50 at TLR7 is below 0.075 µM; at TLR8 it was 0.075 to 0.15 µM.

For the origin of these results see patent US20210300940A1 (Merck Patent GmbH, priority 2018, published 2021).
